Earlier results in US10011570B2, “Nucleic acid binding dyes with improved safety” (Biotium, Inc., priority 2013, dated 2018).

Test system: cellular mutation caused by UV light or other known mutagens
Details: cited from earlier work

SMILES: CCCN(CCCN(C)C)c1cc(/C=C2/Sc3ccccc3N2C)c2ccccc2[n+]1-c1ccccc1 [SYBR Green]
- effect on cellular mutation caused by UV light or other known mutagens: can worsen cellular mutation
- power in worsening mutation relative to ethidium bromide: ~100 times
